This passage reports IC50 results from patent US11712438B2, “Phenyl derivatives as PGE2 receptor modulators” (IDORSIA PHARMACEUTICALS LTD, priority 2017, dated 2023).

In general, IC50 refers to the concentration at which inhibition is half-maximal.

Common to all, as to test: cell-based
For assay [1], the target named is PTRGER4 (EP4) (Homo sapiens, UniProt P35408).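 Further: assay plate preincubated 15 min at 37 °C, after which PGE2 was added at 20 nM final and incubation continued 120 min at 37 °C.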
PTRGER4 (EP4), sequence (P35408 whole entry): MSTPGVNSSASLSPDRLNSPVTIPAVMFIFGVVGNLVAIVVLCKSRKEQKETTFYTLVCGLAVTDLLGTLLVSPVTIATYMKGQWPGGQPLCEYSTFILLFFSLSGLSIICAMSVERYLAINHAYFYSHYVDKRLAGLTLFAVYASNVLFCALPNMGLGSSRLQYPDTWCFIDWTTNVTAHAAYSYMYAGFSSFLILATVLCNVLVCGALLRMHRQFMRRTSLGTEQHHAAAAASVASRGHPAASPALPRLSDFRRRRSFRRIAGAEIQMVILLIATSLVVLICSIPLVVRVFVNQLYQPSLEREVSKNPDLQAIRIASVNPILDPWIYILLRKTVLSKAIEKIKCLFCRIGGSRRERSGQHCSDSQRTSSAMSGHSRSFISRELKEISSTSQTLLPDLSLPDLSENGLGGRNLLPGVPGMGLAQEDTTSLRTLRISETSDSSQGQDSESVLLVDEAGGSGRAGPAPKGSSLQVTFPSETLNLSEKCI
Assay [2] deals with EP2 (Homo sapiens, UniProt P43116).
EP2, sequence (P43116 whole entry): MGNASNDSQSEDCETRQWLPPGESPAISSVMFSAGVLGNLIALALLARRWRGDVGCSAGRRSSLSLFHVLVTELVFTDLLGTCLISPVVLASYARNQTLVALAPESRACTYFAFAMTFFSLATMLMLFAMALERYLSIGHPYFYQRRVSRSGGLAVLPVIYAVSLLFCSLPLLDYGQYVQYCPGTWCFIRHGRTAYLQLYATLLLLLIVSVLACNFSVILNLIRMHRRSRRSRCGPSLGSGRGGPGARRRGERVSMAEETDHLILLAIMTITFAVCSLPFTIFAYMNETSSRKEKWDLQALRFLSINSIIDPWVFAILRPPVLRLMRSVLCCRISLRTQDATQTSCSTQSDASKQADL
Assay [3] has as its target EP4 (Homo sapiens, UniProt P35408).
Text: Human tumor cell lines expressing endogenously either EP4 or EP2 are used and cAMP accumulation in cells upon PGE2 stimulation is monitored.
As a detection method for cAMP the HTRF (homogeneous time resolved fluorescence) Cisbio kit (HTRF cAMP dynamic 2 kit 20′000 tests Cisbio Cat. #62AM4PEC) was used, which is based on a competitive immunoassay using a Cryptate-labeled anti-cAMP antibody and d2-labeled cAMP. Native cAMP produced by cells or unlabeled cAMP (for the standard curve) compete with exogenously added d2-labeled cAMP (acceptor) for binding to monoclonal anti-cAMP-Eu3+ Cryptate (donor). A FRET signal (Fluorescence Resonance Energy Transfer) is obtained only if the labeled anti-cAMP antibody binds the d2 labelled cAMP, thus the specific signal (i.e. energy transfer) is inversely proportional to the concentration of cAMP in the standard or sample.
The BT549 cells (NCI/No. 0507282) are detached from culture dishes with a cell dissociation buffer (Invitrogen, 13151-014), and collected in growing medium (GM: RPM11640 (Invitrogen 21875)/10% FCS, 1% Penicilin/streptomycin). Cells are counted washed and resuspended in assay buffer (AB; HBSS, 20 mM HEPES, 0.2% BSA; 2 mM IBMX). 4′000 cells in 5 μl of AB are seeded per well of a small volume 384 well plate (black with flat bottom, Greiner 784076).
Stock solutions of test compounds are made at a concentration of 10 mM in DMSO, and serially diluted in DMSO to concentrations required for inhibition dose response curves (tested concentration range 30 μM-0.4 nM; 30 μM-0.015 nM or 1 μM-0.01 nM).
PGE2 (Cayman 14010, stock solution: 6 μM in DMSO) is used as agonist at 6 nM final concentration, corresponding to EC80.
Two point five microliters of diluted compounds are transferred into the assay plate. Plate is pre-incubated 45 minutes at room temperature. Subsequently, 2.5 microliters of PGE2 (final conc. 6 nM) are transferred into the assay plate. Plate is incubated 30 minutes at room temperature.
For each compound concentration the percentage of cAMP compared to DMSO control value as average±STDEV (each concentration is measured in duplicate) is calculated.
When compounds were measured multiple times, mean values are given.
In assay [4] the target is PTGER2 (EP2) (Homo sapiens, UniProt P43116).
PTGER2 (EP2), sequence (P43116 whole entry): as above

EP4, sequence (P35408 whole entry): as the sequence (P35408 whole entry) above

As to `O=C(O)c1[nH]c(-c2cc(NCCc3c(F)cc(Br)cc3F)ncn2)cc1C1CC1` [Example 271, 5-{6-[2-(4-Bromo-2,6-difluoro-phenyl)-ethylamino]-pyrimidin-4-yl}-3-cyclopropyl-1H-pyrrole-2-carboxylic acid], the IC50 is 380 nM in assay [1], 151 nM in assay [2], 1760 nM in assay [3] and 36 nM in assay [4].

For the molecule `O=c1[nH]c(-c2ccc(-c3cc(NCCc4c(F)cc(Br)cc4F)ncn3)cc2)no1` [Example 235, 3-(4-{6-[2-(4-Bromo-2,6-difluoro-phenyl)-ethylamino]-pyrimidin-4-yl}-phenyl)-[1,2,4]oxadiazol-5(4H)-one], the IC50 in assay [1] turned out to be 89 nM; in assay [2] it was 203 nM; in assay [3], 149 nM; in assay [4], 43 nM.

Regarding `Cc1cc(-c2cc(NCCc3c(F)cc(Br)cc3F)ncn2)sc1-c1noc(=O)[nH]1` [Example 136, 3-(5-{6-[2-(4-Bromo-2,6-difluoro-phenyl)-ethylamino]-pyrimidin-4-yl}-3-methyl-thiophen-2-yl)-[1,2,4]oxadiazol-5(4H)-one], the IC50 in assay [1] was 6 nM; in assay [2], 17 nM; in assay [3] it was 18 nM; in assay [4] it was 18 nM.

Take `CCOc1cc(-c2cc(NCCc3c(F)cc(Br)cc3F)ncn2)sc1C(N)=O` [Example 279, 5-{6-[2-(4-Bromo-2,6-difluoro-phenyl)-ethylamino]-pyrimidin-4-yl}-3-ethoxy-thiophene-2-carboxylic acid amide]: the IC50 in assay [1] amounted to 5 nM; in assay [2], 72 nM; in assay [3] it was 12 nM; in assay [4], 46 nM.

As to `CCOc1cc(-c2cc(NCCc3c(F)cc(Br)cc3F)ncn2)ccc1C(=O)O` [Example 180, 4-{6-[2-(4-Bromo-2,6-difluoro-phenyl)-ethylamino]-pyrimidin-4-yl}-2-ethoxy-benzoic acid], the half-inhibitory concentration (IC50) in assay [1] is 674 nM; in assay [2] it was 52 nM; in assay [3] it was 221 nM; in assay [4], 119 nM.

For `O=C(O)c1sc(-c2cc(NCCc3c(F)cc(Br)cc3F)ncn2)cc1Cl` [Example 31, 5-{6-[2-(4-Bromo-2,6-difluoro-phenyl)-ethylamino]-pyrimidin-4-yl}-3-chloro-thiophene-2-carboxylic acid], the concentration for half-maximal inhibition (IC50) in assay [1] turned out to be 100 nM; in assay [2], 8 nM; in assay [3] it was 14 nM; in assay [4], 39 nM.

`CCOc1cc(-c2cc(NCCc3ccc(SC)cc3OC)ncn2)ccc1C(=O)O` [Example 6, 2-Ethoxy-4-{6-[2-(2-methoxy-4-methylsulfanyl-phenyl)-ethylamino]-pyrimidin-4-yl}-benzoic acid]: the IC50 in assay [1] was found to be 1210 nM; in assay [2] it was 702 nM; in assay [3], 573 nM; in assay [4], 1350 nM.

Take `CCOc1cc(-c2cc(NCCc3ccc(Br)cc3)ncn2)sc1-c1noc(=O)[nH]1` [Example 130, 3-(5-{6-[2-(4-Bromo-phenyl)-ethylamino]-pyrimidin-4-yl}-3-ethoxy-thiophen-2-yl)-[1,2,4]oxadiazol-5(4H)-one]: the IC50 amounted to 4 nM in assay [1], 63 nM in assay [2], 24 nM in assay [3] and 22 nM in assay [4].

Take `CCOc1cc(-c2cc(NCCc3ccc(OC)c(O)c3)ncn2)sc1-c1noc(=O)[nH]1` [Example 117, 3-(3-Ethoxy-5-{6-[2-(3-hydroxy-4-methoxy-phenyl)-ethylamino]-pyrimidin-4-yl}-thiophen-2yl)-[1,2,4]oxadiazol-5(4H)-one]: the concentration for half-maximal inhibition (IC50) in assay [1] is 16 nM; in assay [2], 244 nM; in assay [3], 26 nM; in assay [4], 692 nM.

For `CCOc1cc(-c2cc(NCCc3c(F)cc(Br)cc3F)ncn2)ccc1Cc1noc(=S)[nH]1` [Example 283, 3-(4-{6-[2-(4-Bromo-2,6-difluoro-phenyl)-ethylamino]-pyrimidin-4-yl}-2-ethoxy-benzyl)-[1,2,4]oxadiazole-5(4H)-thione], the half-maximal inhibitory concentration (IC50) in assay [1] worked out at 245 nM; in assay [2], 959 nM; in assay [3] it was 595 nM; in assay [4] it was 118 nM.

Take `CCOc1nc(-c2cc(NCCc3c(F)cc(Br)cc3F)ncn2)sc1-c1noc(=O)[nH]1` [Example 150, 3-(2-{6-[2-(4-Bromo-2,6-difluoro-phenyl)-ethylamino]-pyrimidin-4-yl}-4-ethoxy-thiazol-5-yl)-[1,2,4]oxadiazol-5(4H)-one]: the IC50 in assay [1] was determined as 2 nM; in assay [2] it was 15 nM; in assay [3], 9 nM; in assay [4], 13 nM.

On to `CCOc1cc(-c2cc(NCCc3c(F)cc(Br)cc3F)ncn2)ccc1CC(=O)O` [Example 49, (4-{6-[2-(4-Bromo-2,6-difluoro-phenyl)-ethylamino]-pyrimidin-4-yl}-2-ethoxy-phenyl)-acetic acid], for which the IC50 in assay [1] is 143 nM; in assay [2], 246 nM; in assay [3], 159 nM; in assay [4], 139 nM.

For the molecule `CCCCOc1cc(-c2cc(NCCc3c(F)cc(Br)cc3F)ncn2)cc(F)c1C(=O)O` [Example 167, 4-{6-[2-(4-Bromo-2,6-difluoro-phenyl)-ethylamino]-pyrimidin-4-yl}-2-butoxy-6-fluoro-benzoic acid], the concentration for half-maximal inhibition (IC50) in assay [1] amounted to 431 nM; in assay [2] it was 198 nM; in assay [3], 1080 nM; in assay [4], 42 nM.

Take `CCOc1cc(-c2cc(NCCc3cc(Br)ccc3SC)ncn2)sc1-c1noc(=O)[nH]1` [Example 275, 3-(5-{6-[2-(5-Bromo-2-methylsulfanyl-phenyl)-ethylamino]-pyrimidin-4-yl}-3-ethoxy-thiophen-2-yl)-[1,2,4]oxadiazol-5(4H)-one]: the concentration for half-maximal inhibition (IC50) was determined as 90 nM in assay [1], 163 nM in assay [2], 18 nM in assay [3] and 125 nM in assay [4].

Regarding `CCOc1cc(-c2cc(NCCc3ccc(Br)cc3OC)ncn2)ccc1C(=O)O` [Example 50, 4-{6-[2-(4-Bromo-2-methoxy-phenyl)-ethylamino]-pyrimidin-4-yl}-2-ethoxy-benzoic acid], the IC50 in assay [1] came out at 1310 nM; in assay [2], 259 nM; in assay [3], 910 nM; in assay [4] it was 264 nM.

Regarding `CCOc1cc(-c2cc(NCCc3ccccc3C)ncn2)sc1C(=O)O` [Example 55, 3-Ethoxy-5-[6-(2-o-tolyl-ethylamino)-pyrimidin-4-yl]-thiophene-2-carboxylic acid], the IC50 in assay [1] turned out to be 1000 nM; in assay [2] it was 65 nM; in assay [3] it was 396 nM; in assay [4], 89 nM.

For `CCOc1cc(-c2cc(NCCc3ccc(Br)cc3)ncn2)sc1CC(=O)O` [Example 17, (5-{6-[2-(4-Bromo-phenyl)-ethylamino]-pyrimidin-4-yl}-3-ethoxy-thiophen-2-yl)-acetic acid], the IC50 in assay [1] is 147 nM; in assay [2] it was 189 nM; in assay [3], 293 nM; in assay [4], 202 nM.

For the molecule `CCOc1cc(-c2cc(NCCc3ccc(OC)cc3CC)ncn2)sc1-c1noc(=O)[nH]1` [Example 99, 3-(3-Ethoxy-5-{6-[2-(2-ethyl-4-methoxy-phenyl)-ethylamino]-pyrimidin-4-yl}-thiophen-2-yl)-[1,2,4]oxadiazol-5(4H)-one], the IC50 in assay [1] amounted to 45 nM; in assay [2] it was 80 nM; in assay [3], 69 nM; in assay [4] it was 75 nM.

As for `CNc1cc(-c2cc(NCCc3c(F)cc(Br)cc3F)ncn2)ccc1C(=O)NCCO` [Example 276, 4-{6-[2-(4-Bromo-2,6-difluoro-phenyl)-ethylamino]-pyrimidin-4-yl}-N-(2-hydroxy-ethyl)-2-methylamino-benzamide], the IC50 in assay [1] is 37 nM; in assay [2], 59 nM; in assay [3], 72 nM; in assay [4], 23 nM.

For the molecule `O=C(O)Cc1ccc(-c2cc(NCCc3c(F)cc(Br)cc3F)ncn2)cc1OC(F)F` [Example 252, (4-{6-[2-(4-Bromo-2,6-difluoro-phenyl)-ethylamino]-pyrimidin-4-yl}-2-difluoromethoxy-phenyl)-acetic acid], the IC50 in assay [1] was found to be 484 nM; in assay [2] it was 1910 nM; in assay [3], 959 nM; in assay [4], 214 nM.

With `CCOc1cc(-c2cc(NCCc3ccc(Br)cc3F)ncn2)sc1-c1noc(=O)[nH]1` [Example 125, 3-(5-{6-[2-(4-Bromo-2-fluoro-phenyl)-ethylamino]-pyrimidin-4-yl}-3-ethoxy-thiophen-2-yl)-[1,2,4]oxadiazol-5(4H)-one], the IC50 in assay [1] was 3 nM; in assay [2] it was 49 nM; in assay [3], 5 nM; in assay [4] it was 11 nM.

In the case of `O=C(O)c1cccc2cc(-c3cc(NCCc4c(F)cc(Br)cc4F)ncn3)[nH]c12` [Example 263, 2-{6-[2-(4-Bromo-2,6-difluoro-phenyl)-ethylamino]-pyrimidin-4-yl}-1H-indole-7-carboxylic acid], the half-maximal inhibitory concentration (IC50) in assay [1] was determined as 73 nM; in assay [2] it was 167 nM; in assay [3] it was 73 nM; in assay [4] it was 31 nM.

For the molecule `O=C(O)Cc1sc(-c2cc(NCCc3c(F)cc(Br)cc3F)ncn2)cc1OC(F)F` [Example 315, (5-{6-[2-(4-Bromo-2,6-difluoro-phenyl)-ethylamino]-pyrimidin-4-yl}-3-difluoromethoxy-thiophen-2-yl)-acetic acid], the half-maximal inhibitory concentration (IC50) in assay [1] was found to be 38 nM; in assay [2], 17 nM; in assay [3] it was 28 nM; in assay [4], 25 nM.

For `COc1cc(C(F)F)c(F)cc1CCNc1cc(-c2ccc(C(=O)O)c(SC)c2)ncn1` [Example 187, 4-{6-[2-(4-Difluoromethyl-5-fluoro-2-methoxy-phenyl)-ethylamino]-pyrimidin-4-yl}-2-methylsulfanyl-benzoic acid], the IC50 in assay [1] worked out at 216 nM; in assay [2] it was 260 nM; in assay [3], 200 nM; in assay [4], 130 nM.
